Laboratory results: patent US12371428B2 (Exelixis, Inc., priority 2019, dated 2025)
pIC50: −log10 of the molar value.

Legend:
[1] = molecular target: Human MET (residues 956-1390) (Homo sapiens (Human), UniProt P08581); assay: Human Met kinase assay, HTRF KinEase (Example D-2); type: biochemical; settings: protocol of Example D-2 (other compounds); read-out: c-Met IC50
Method in brief: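 HTRF KinEase assay on MET residues 956-1390 (0.1 ng/well) in buffer with 5 mM MgCl2, 1 mM DTT and 1 mM MnCl2, with biotinylated peptide substrate, ATP at Km, 10 compound concentrations and 3% DMSO final, run 40 min at room temperature. The […] signal was normalized to DMSO and to 1 μM reference compound, and IC50 came from a 4-parameter logistic fit.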

[2] = molecular target: Mer (phospho-Mer, MERTK-transfected 293A cells) (Homo sapiens (Human), UniProt Q12866); assay: Mer autophosphorylation ELISA in transient transfected 293A cells (Example H); type: cell-based; settings: cellular activity; Mer autophosphorylation ELISA in transient transfected 293A cells
Chain of Mer (phospho-Mer, MERTK-transfected 293A cells) (Q12866 21-999): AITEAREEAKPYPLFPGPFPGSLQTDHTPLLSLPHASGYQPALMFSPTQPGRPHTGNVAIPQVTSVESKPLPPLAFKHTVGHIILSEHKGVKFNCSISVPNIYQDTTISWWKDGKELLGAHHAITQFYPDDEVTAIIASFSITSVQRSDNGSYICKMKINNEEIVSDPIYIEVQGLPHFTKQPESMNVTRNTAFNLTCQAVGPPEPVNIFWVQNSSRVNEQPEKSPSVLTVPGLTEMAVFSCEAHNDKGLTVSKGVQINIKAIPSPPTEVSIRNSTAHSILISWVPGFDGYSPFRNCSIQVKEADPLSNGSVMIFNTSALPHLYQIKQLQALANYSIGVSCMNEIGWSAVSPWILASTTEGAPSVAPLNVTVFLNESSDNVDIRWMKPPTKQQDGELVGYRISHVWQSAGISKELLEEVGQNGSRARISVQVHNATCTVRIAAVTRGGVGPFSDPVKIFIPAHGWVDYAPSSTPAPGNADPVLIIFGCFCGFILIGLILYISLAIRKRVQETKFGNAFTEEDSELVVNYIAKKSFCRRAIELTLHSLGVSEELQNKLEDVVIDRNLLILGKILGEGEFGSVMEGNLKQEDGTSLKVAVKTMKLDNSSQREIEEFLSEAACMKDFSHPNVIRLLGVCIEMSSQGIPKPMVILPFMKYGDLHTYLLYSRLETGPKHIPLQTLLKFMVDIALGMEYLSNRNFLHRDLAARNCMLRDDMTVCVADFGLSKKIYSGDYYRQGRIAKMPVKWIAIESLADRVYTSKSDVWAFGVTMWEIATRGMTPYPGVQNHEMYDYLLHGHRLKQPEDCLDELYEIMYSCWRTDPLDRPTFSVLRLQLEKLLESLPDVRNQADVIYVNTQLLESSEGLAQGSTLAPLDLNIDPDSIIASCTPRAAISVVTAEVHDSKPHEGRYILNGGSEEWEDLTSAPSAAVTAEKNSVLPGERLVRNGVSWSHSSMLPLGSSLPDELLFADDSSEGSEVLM
Method in brief: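 Human MERTK transiently transfected into 293A cells; compounds as 8-point dose curve in serum-free medium (0.3% DMSO final), 1 h. Lysates assayed by phospho-Mer sandwich ELISA against phospho-Mer standard; DMSO = 100%, reference inhibitor = 0% activity; IC50 from 4-parameter logistic fit.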

Chain of Human MET (residues 956-1390) (P08581 956-1390): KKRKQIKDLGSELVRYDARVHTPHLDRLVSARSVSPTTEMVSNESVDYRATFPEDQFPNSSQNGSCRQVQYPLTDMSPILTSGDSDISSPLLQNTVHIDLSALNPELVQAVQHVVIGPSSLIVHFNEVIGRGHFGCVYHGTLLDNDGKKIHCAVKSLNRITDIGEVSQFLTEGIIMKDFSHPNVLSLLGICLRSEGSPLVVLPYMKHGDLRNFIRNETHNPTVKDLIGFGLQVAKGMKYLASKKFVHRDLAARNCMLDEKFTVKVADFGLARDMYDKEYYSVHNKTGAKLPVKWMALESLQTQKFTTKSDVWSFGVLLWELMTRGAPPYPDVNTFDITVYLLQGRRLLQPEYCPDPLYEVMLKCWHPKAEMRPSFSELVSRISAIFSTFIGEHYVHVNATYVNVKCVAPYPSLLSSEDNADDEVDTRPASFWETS

| pIC50 [1] | pIC50 [2] | Compound |
| --- | --- | --- |
| > 7.00 | > 7.00 | COc1cc2nccc(Oc3ccc(NC(=O)c4c5n(cc(-c6ccc(F)cc6)c4=O)CCC5)cc3F)c2cc1OC [Compound 409, N-[4-(6,7-dimethoxyquinolin-4-yl)oxy-3-fluorophenyl]-6-(4-fluorophenyl)-7-oxo-2,3-dihydro-1H-indolizine-8-carboxamide] |
| > 7.00 | 6.52 to 7.00 | CCn1cc(C(=O)Nc2ccc(Oc3ccnc4cc(O)cnc34)c(F)c2)c(=O)c(-c2ccc(F)cc2)c1C [Compound 410, 1-ethyl-N-[3-fluoro-4-[(7-hydroxy-1,5-naphthyridin-4-yl)oxy]phenyl]-5-(4-fluorophenyl)-6-methyl-4-oxopyridine-3-carboxamide] |
| > 7.00 | > 7.00 | COc1cnc2c(Oc3ccc(NC(=O)c4cn(C)c(Cl)c(-c5ccc(F)cc5)c4=O)cc3F)ccnc2c1 [Compound 411, 6-chloro-N-[3-fluoro-4-[(7-methoxy-1,5-naphthyridin-4-yl)oxy]phenyl]-5-(4-fluorophenyl)-1-methyl-4-oxopyridine-3-carboxamide] |
| > 7.00 | > 7.00 | COc1cc2nccc(Oc3ccc(NC(=O)c4cn(C)c(Cl)c(-c5ccc(F)cc5)c4=O)cc3F)c2nc1OC [Compound 412, 6-chloro-N-[4-[(6,7-dimethoxy-1,5-naphthyridin-4-yl)oxy]-3-fluorophenyl]-5-(4-fluorophenyl)-1-methyl-4-oxopyridine-3-carboxamide] |
| > 7.00 | > 7.00 | COc1cc2nccc(Oc3ccc(NC(=O)c4cnc(C)c(-c5ccc(F)cc5)c4O)cc3)c2nc1OC(C)C [Compound 413, 5-(4-fluorophenyl)-4-hydroxy-N-[4-[(7-methoxy-6-propan-2-yloxy-1,5-naphthyridin-4-yl)oxy]phenyl]-6-methylpyridine-3-carboxamide] |
| > 7.00 | > 7.00 | COc1cc2nccc(Oc3ccc(NC(=O)c4cnc(C)c(-c5ccc(F)cc5C)c4O)cc3)c2nc1OC(C)C [Compound 414, 5-(4-fluoro-2-methylphenyl)-4-hydroxy-N-[4-[(7-methoxy-6-propan-2-yloxy-1,5-naphthyridin-4-yl)oxy]phenyl]-6-methylpyridine-3-carboxamide] |
| > 7.00 | > 7.00 | COc1cc2nccc(Oc3ccc(NC(=O)c4cnc(C)c(-c5ccc(F)cc5)c4O)cc3F)c2nc1OC(C)C [Compound 415, N-[3-fluoro-4-[(7-methoxy-6-propan-2-yloxy-1,5-naphthyridin-4-yl)oxy]phenyl]-5-(4-fluorophenyl)-4-hydroxy-6-methylpyridine-3-carboxamide] |
| > 7.00 | > 7.00 | COc1cc2nccc(Oc3ccc(NC(=O)c4cnc(C)c(-c5ccc(F)cc5C)c4O)cc3F)c2nc1OC(C)C [Compound 416, N-[3-fluoro-4-[(7-methoxy-6-propan-2-yloxy-1,5-naphthyridin-4-yl)oxy]phenyl]-5-(4-fluoro-2-methylphenyl)-4-hydroxy-6-methylpyridine-3-carboxamide] |
| > 7.00 | 6.52 to 7.00 | COc1cnc2c(Oc3ccc(NC(=O)c4cnc(C)c(-c5c(C)cc(F)cc5C)c4O)cc3F)ccnc2c1 [Compound 417, 5-(4-fluoro-2,6-dimethylphenyl)-N-[3-fluoro-4-[(7-methoxy-1,5-naphthyridin-4-yl)oxy]phenyl]-4-hydroxy-6-methylpyridine-3-carboxamide] |
| > 7.00 | > 7.00 | CCc1cnc2c(Oc3ccc(NC(=O)c4cnc(C)c(-c5ccc(F)cc5)c4O)cc3F)ccnc2c1 [Compound 418, N-[4-[(7-ethyl-1,5-naphthyridin-4-yl)oxy]-3-fluorophenyl]-5-(4-fluorophenyl)-4-hydroxy-6-methylpyridine-3-carboxamide] |
| > 7.00 | > 7.00 | CCc1cnc2c(Oc3ccc(NC(=O)c4cnc(C)c(-c5ccc(F)cc5C)c4O)cc3F)ccnc2c1 [Compound 419, N-[4-[(7-ethyl-1,5-naphthyridin-4-yl)oxy]-3-fluorophenyl]-5-(4-fluoro-2-methylphenyl)-4-hydroxy-6-methylpyridine-3-carboxamide] |
| 6.52 to 7.00 | > 7.00 | CCc1cc2nccc(Oc3ccc(NC(=O)c4cnc(C)c(-c5ccc(F)cc5)c4O)cc3F)c2nc1OC [Compound 420, N-[4-[(7-ethyl-6-methoxy-1,5-naphthyridin-4-yl)oxy]-3-fluorophenyl]-5-(4-fluorophenyl)-4-hydroxy-6-methylpyridine-3-carboxamide] |
| 6.52 to 7.00 | > 7.00 | CCc1cc2nccc(Oc3ccc(NC(=O)c4cnc(C)c(-c5ccc(F)cc5C)c4O)cc3F)c2nc1OC [Compound 421, N-[4-[(7-ethyl-6-methoxy-1,5-naphthyridin-4-yl)oxy]-3-fluorophenyl]-5-(4-fluoro-2-methylphenyl)-4-hydroxy-6-methylpyridine-3-carboxamide] |
| > 7.00 | > 7.00 | C=Cc1cc2nccc(Oc3ccc(NC(=O)c4cnc(C)c(-c5ccc(F)cc5)c4O)cc3F)c2nc1OC [Compound 422, N-[4-[(7-ethenyl-6-methoxy-1,5-naphthyridin-4-yl)oxy]-3-fluorophenyl]-5-(4-fluorophenyl)-4-hydroxy-6-methylpyridine-3-carboxamide] |
| 6.52 to 7.00 | > 7.00 | C=Cc1cc2nccc(Oc3ccc(NC(=O)c4cnc(C)c(-c5ccc(F)cc5C)c4O)cc3F)c2nc1OC [Compound 423, N-[4-[(7-ethenyl-6-methoxy-1,5-naphthyridin-4-yl)oxy]-3-fluorophenyl]-5-(4-fluoro-2-methylphenyl)-4-hydroxy-6-methylpyridine-3-carboxamide] |
| > 7.00 | > 7.00 | COc1cc2nccc(Oc3ccc(NC(=O)c4cnc(C)c(-c5ccc(F)cc5)c4O)cc3F)c2nc1OCCCN1CCOCC1 [Compound 424, N-[3-fluoro-4-[[7-methoxy-6-(3-morpholin-4-ylpropoxy)-1,5-naphthyridin-4-yl]oxy]phenyl]-5-(4-fluorophenyl)-4-hydroxy-6-methylpyridine-3-carboxamide] |
| > 7.00 | > 7.00 | COc1cc2nccc(Oc3ccc(NC(=O)c4cnc(C)c(-c5ccc(F)cc5C)c4O)cc3F)c2nc1OCCCN1CCOCC1 [Compound 425, N-[3-fluoro-4-[[7-methoxy-6-(3-morpholin-4-ylpropoxy)-1,5-naphthyridin-4-yl]oxy]phenyl]-5-(4-fluoro-2-methylphenyl)-4-hydroxy-6-methylpyridine-3-carboxamide] |
| > 7.00 | > 7.00 | Cc1cc2nccc(Oc3ccc(NC(=O)c4cnc(C)c(-c5ccc(F)cc5)c4O)cc3F)c2nc1F [Compound 426, N-[3-fluoro-4-[(6-fluoro-7-methyl-1,5-naphthyridin-4-yl)oxy]phenyl]-5-(4-fluorophenyl)-4-hydroxy-6-methylpyridine-3-carboxamide] |
| 6.52 to 7.00 | > 7.00 | Cc1cc(F)ccc1-c1c(C)ncc(C(=O)Nc2ccc(Oc3ccnc4cc(C)c(F)nc34)c(F)c2)c1O [Compound 427, N-[3-fluoro-4-[(6-fluoro-7-methyl-1,5-naphthyridin-4-yl)oxy]phenyl]-5-(4-fluoro-2-methylphenyl)-4-hydroxy-6-methylpyridine-3-carboxamide] |
